Data on 20 compounds can be found in BindingDB's records for doi:10.1016/j.chembiol.2011.05.012 (University of Bern, 2011).

One assay addresses Cannabinoid receptor 2 (Homo sapiens, UniProt P34972). Nature of the assay: Binding Assay. The text has this: (§1) Binding assay with hCB1 and hCB2 receptors.
For a further assay, the target named is Cannabinoid receptor 1 (Homo sapiens, UniProt P21554). Nature of the assay: Binding Assay.
Source text: as §1

Where “and” joins values, the source holds several entries; their conditions need not be identical. Equal values may be shown once.

Chain of Cannabinoid receptor 1 (P21554 whole entry): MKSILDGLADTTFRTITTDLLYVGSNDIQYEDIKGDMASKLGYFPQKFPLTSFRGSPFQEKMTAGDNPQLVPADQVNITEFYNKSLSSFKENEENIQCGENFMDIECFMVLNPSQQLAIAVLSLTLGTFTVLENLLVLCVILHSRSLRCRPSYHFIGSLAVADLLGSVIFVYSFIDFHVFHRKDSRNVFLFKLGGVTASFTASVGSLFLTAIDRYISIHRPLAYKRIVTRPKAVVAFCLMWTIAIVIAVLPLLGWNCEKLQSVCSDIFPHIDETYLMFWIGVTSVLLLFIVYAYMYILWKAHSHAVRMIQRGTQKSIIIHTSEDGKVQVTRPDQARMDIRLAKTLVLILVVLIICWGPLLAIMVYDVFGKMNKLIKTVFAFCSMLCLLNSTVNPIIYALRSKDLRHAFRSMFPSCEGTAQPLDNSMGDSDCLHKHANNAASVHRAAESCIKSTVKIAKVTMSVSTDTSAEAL
Chain of Cannabinoid receptor 2 (P34972 whole entry): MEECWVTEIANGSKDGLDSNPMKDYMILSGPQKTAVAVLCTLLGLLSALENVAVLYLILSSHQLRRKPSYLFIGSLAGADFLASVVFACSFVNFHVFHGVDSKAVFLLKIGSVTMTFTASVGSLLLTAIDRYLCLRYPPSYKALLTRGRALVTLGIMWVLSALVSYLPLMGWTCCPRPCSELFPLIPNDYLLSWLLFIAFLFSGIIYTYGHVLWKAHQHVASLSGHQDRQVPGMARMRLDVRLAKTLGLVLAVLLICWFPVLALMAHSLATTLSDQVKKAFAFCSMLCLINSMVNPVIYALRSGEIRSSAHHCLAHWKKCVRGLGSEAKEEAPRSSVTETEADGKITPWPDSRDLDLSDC

For the compound `CCCCC/C=C/C/C=C/C/C=C/C/C=C/CCCC(=O)OC(CO)CO` [2-Arachidonoylglycerol, 2-AG], the affinity on Cannabinoid receptor 2, expressed as Ki, was 892 nM.

Consider `C=CCc1ccc(OCCC)c(-c2ccc(O)c(CC=C)c2)c1` [Magreth-17a], for which the results for the Ki on Cannabinoid receptor 1 and on Cannabinoid receptor 2 were over 5000 nM and 57 nM, respectively.

Turning to `C=CCc1ccc(OCC)c(-c2ccc(OCC)c(CC=C)c2)c1` [Magreth-19], the figures for the Ki at Cannabinoid receptor 1 and at Cannabinoid receptor 2 were over 3000 nM and 134 nM, respectively.

As for `C=CCc1ccc(O)c(-c2ccc(OCCC)c(CC=C)c2)c1` [Magreth-17b], the inhibition constant (Ki) (as a rule, a measure of affinity in units of concentration, obtained from inhibition or displacement) at Cannabinoid receptor 1 is over 5000 nM; on Cannabinoid receptor 2 it was 46 nM.

As to `C=CCc1ccc(OCCCCC)c(-c2ccc(O)c(CC=C)c2)c1` [Magreth-18a], the Ki is over 5000 nM at Cannabinoid receptor 1 and 102 nM on Cannabinoid receptor 2.

In the case of `CCCc1ccc(O)c(-c2ccc(OC)c(CCC)c2)c1`, the Ki was over 2000 nM at Cannabinoid receptor 1 and 74 nM on Cannabinoid receptor 2.

On to `C=CCc1ccc(OCC)c(-c2ccc(O)c(CC=C)c2)c1` [Magreth-16a], for which affinity at Cannabinoid receptor 2 was put at a Ki of 51 nM.

On to `C=CCc1ccc(O)c(-c2ccc(OC)c(CC=C)c2)c1` [Magreth-14a], for which the Ki on Cannabinoid receptor 1 is 790 nM; at Cannabinoid receptor 2, 43.9 nM and 138 nM.

In the case of `CCCc1ccc(O)c(-c2ccc(O)c(CCC)c2)c1`, the Ki on Cannabinoid receptor 1 was over 5000 nM; at Cannabinoid receptor 2, 1300 nM.

`C=CCc1ccc(O)c(-c2cc(CC=C)ccc2O)c1` [2-(2-hydroxy-5-prop-2-enylphenyl)-4-prop-2-enylphenol] displayed a Ki at Cannabinoid receptor 2 of over 2000 nM.

Take `C=CCc1cc(-c2cc(CC(C)Br)ccc2O)ccc1O` (stereo unspecified) [Magreth-12a]: the Ki was over 5000 nM on Cannabinoid receptor 1 and 1260 nM on Cannabinoid receptor 2.

`C=CCc1ccc(O)c(-c2ccc(O)c(CC=C)c2)c1` [3',5-diallylbiphenyl-2,4'-diol] registered a Ki at Cannabinoid receptor 2 of 1760 nM.

As for `CC(Br)Cc1ccc(O)c(-c2ccc(O)c(CC(C)Br)c2)c1` (stereo unspecified) [Magreth-12b], the Ki at Cannabinoid receptor 1 was over 5000 nM; at Cannabinoid receptor 2, 680 nM.

Consider `COc1ccc(-c2cc(CC(C)Br)ccc2O)cc1CC(C)Br` (stereo unspecified) [Magreth-11c], for which the figures for the Ki at Cannabinoid receptor 1 and at Cannabinoid receptor 2 were over 5000 nM and 427 nM, respectively.

Take `C=CCc1ccc(O)c(-c2ccc(O)c(/C=C/C)c2)c1` [Magreth-4]: the results for the Ki at Cannabinoid receptor 1 and on Cannabinoid receptor 2 were over 5000 nM and 1760 nM, respectively.

For the compound `C=CCc1cc(-c2cc(CC(C)Br)ccc2O)ccc1OC` (stereo unspecified) [Magreth-11a], the Ki on Cannabinoid receptor 1 was over 5000 nM; on Cannabinoid receptor 2 it was 1080 nM.

With `C=CCc1ccc(O)c(-c2ccc(OCC)c(CC=C)c2)c1` [Magreth-16b], the Ki at Cannabinoid receptor 1 came to 970 nM; on Cannabinoid receptor 2 it was 40 nM.

As for `C=CCc1ccc(O)c(-c2ccc(OCCCCC)c(CC=C)c2)c1` [Magreth-18b], the Ki was over 5000 nM on Cannabinoid receptor 1 and over 3000 nM at Cannabinoid receptor 2.

In the case of `C=CCc1ccc(O)c(-c2ccc(OC)c(/C=C/C)c2)c1` [Magreth-3a], the Ki on Cannabinoid receptor 1 was over 5000 nM; on Cannabinoid receptor 2, 40.8 nM and 59.1 nM.

For `C=CCc1ccc(O)c(-c2ccc(OC)c(CC(C)Br)c2)c1` (stereo unspecified) [Magreth-11b], the results for the Ki at Cannabinoid receptor 1 and at Cannabinoid receptor 2 were 860 nM and 84 nM, respectively.
